Test results: patent US20260070927A1, “INDAZOLE MACROCYCLES FOR THE TREATMENT OF AUTOIMMUNE DISEASE” (Hoffmann-La Roche Inc., priority 2022, published 2026)

Columns and labels:
[1] = target: human stimulator of interferon genes (STING) (139-379) (Homo sapiens (Human), UniProt Q86WV6); assay: Microliter plate-based TR-FRET competition-binding assay for binders of STING; details: Alexa488 probe, read-out: FRET_IC50
Method: This is the competition-binding assay to test the compounds' potency to the C-terminal Domain (CTD) and ligand-binding domain of human stimulator of interferon genes (STING). STING (139-379, Q86WV6, http://www.uniprot.org/uniprot) recombinant protein (in 20 mM Tris, 150 mM NaCl, pH 8.0, and expression in Escherichia coli (E. coli) BL21 (DE3)) with a C-terminal flag-tag was employed for the assay. When Alexa-488 labeled active site probe (refer to patent WO2017/175156 A1) bounds to STING (139-379), it accepts the 485 nm emission from Tb-M2-Flag-STING and results in an increase in fluorescence at 520 nm. Compounds that compete for the probe-binding site will reduce 520 nm signal. The assay was run in proxiplate-384 plus (PerkinElmer, cat: 60150300) containing of 2.5 nM STING, 2.5 nM M2-Tb (Cisbio, 61FG2TLA, Lot: 17 A) and 250 nM Alexa488 probe. Plates were centrifuged for 1 min at 1000 rpm, incubated for 30 min at room temperature, and then measured the dual fluorescence emission at 520 nm/485 nM following 320 nm laser excitation on an Envision plate reader (Perkin-Elmer). The compounds' effect on the STING binding is detected by measuring ratiometric fluorescence from time-resolved FRET. The percentage of inhibition of at each compound concentration is calculated on the basis of their changes of TR-FRET efficiency relative to the change of TR-FRET caused by positive control 2′3′cGAMP (Sigma, cat: SML1229).

[2] = system: STING (IFN-β in hPBMC); assay: hPBMC cytokine functional assay (IFN-β decrease after Baculovirus stimulation); assay type: cell-based; details: Homo sapiens, Baculovirus MOI 40, 24 hours, read-out: hPBMC_IC50
Method: The inhibition of STING by compounds could be measured by the decrease of IFN-β in hPBMC, which is stimulated by a double stranded DNA virus Baculoviurs (Purchased from Genescript, pCMV-Dest Vector virus generation P2 BV stock virus, Sf-900 II medium with 5% FBS, Lot C9835DK230-2/P4DL001). Frozen hPBMC cells (purchased from Stemcell Technologies, cat number is 70025, Lot 191070803C) were thawed at 37° C. water bath, then cells were re-suspended in 50 ml tube using 20 ml Cell culture medium, and then centrifuged for 5 min at 2000 rpm before the supernatant was removed carefully. The cells were re-suspended in culture medium (RPMI-1640 with 1.5 g/L NaHCO3, 4.5 g/L glucose, 10 mM HEPES and 1 mM Na-pyruvate, 10% HI-FBS); 65 μL of the cell suspension was dispensed into 384 well plate (70K cells/well) by Multidrop Combi with at least 3 hours incubation at 37° C., 5% CO2 cell incubator.
Then 4 μL of compound solution per well (final 0.5% DMSO) was transferred by Agilent Bravo followed by infection with 11 μL of Baculovirus at a final MOI of 40. The level of IFN-β secreted in the supernatant of hPBMC was determined after 24 hours of incubation at 37° C. cell incubator by human IFN-β HTRF assay (Cisbio, cat: 62HIFNBPEH) following the manufacture's instruction. CellTiter-Glo kit (Promega, cat: G7573) was applied for the cell viability evaluation using Envision.

[3] = Metabolic (liver microsomal) stability assay; details: human liver microsomes, 1 μM test compound

Sequence of human stimulator of interferon genes (STING) (139-379) (Q86WV6 139-379): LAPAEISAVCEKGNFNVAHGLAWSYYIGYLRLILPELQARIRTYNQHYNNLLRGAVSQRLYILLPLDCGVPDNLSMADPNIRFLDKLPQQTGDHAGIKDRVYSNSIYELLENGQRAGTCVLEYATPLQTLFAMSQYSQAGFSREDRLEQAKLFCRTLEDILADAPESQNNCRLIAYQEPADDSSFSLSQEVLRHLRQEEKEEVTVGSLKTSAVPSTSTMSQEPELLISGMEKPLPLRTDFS

Structure (SMILES) | IC50 [1] | IC50 [2] | Clearance of human microsome [3]
Cn1cnc(CN2CCCc3c4c(cccc4nn3C)-c3cccc(c3)O[C@H]3C[C@@H](C2=O)N(c2ncnc4c2cnn4-c2ccc(F)cc2F)C3)n1 [Example 16, (8S,11S)-10-[1-(2,4-difluorophenyl)pyrazolo[3,4-d]pyrimidin-4-yl]-18-methyl-13-[(1-methyl-1,2,4-triazol-3-yl)methyl]-7-oxa-10,13,18,19 tetrazapentacyclo[15.6.1.1^2,6.1^8,11.0^20,24]hexacosa-1(23),2(26),3,5,17(24),19,21-heptaen-12-one] | 3.1 nM | 384 nM | 15.9 mL/min/kg
Cn1nc2cccc3c2c1CCCN(CC1CC1)C(=O)[C@@H]1C[C@@H](CN1c1ncnc2c1cnn2-c1ccc(F)cc1F)Oc1cc-3ncn1 [Example 18, (8S,11S)-13-(cyclopropylmethyl)-10-[1-(2,4-difluorophenyl)pyrazolo[3,4-d]pyrimidin-4-yl]-18-methyl-7-oxa-3,5,10,13,18,19-hexazapentacyclo[15.6.1.1^2,6.1^8,11.0^20,24]hexacosa-1(23),2(26),3,5,17(24),19,21-heptaen-12-one] | 12.5 nM | 491 nM | 12.4 mL/min/kg
Cn1nc2cccc3c2c1CCCN(CC1CC1)C(=O)[C@@H]1C[C@@H](CN1c1ncnc2c1cnn2-c1ccc(F)cc1F)Oc1nccc-3n1 [Example 19, (8S,11S)-13-(cyclopropylmethyl)-10-[1-(2,4-difluorophenyl)pyrazolo[3,4-d]pyrimidin-4-yl]-18-methyl-7-oxa-5,10,13,18,19,26-hexazapentacyclo[15.6.1.1^2,6.1^8,11.0^20,24]hexacosa-1(23),2(26),3,5,17(24),19,21-heptaen-12-one] | 13.1 nM | 976 nM | 10.0 mL/min/kg
Cn1nc2cccc3c2c1CCCN(CCO)C(=O)[C@@H]1C[C@@H](CN1c1ncnc2c1cnn2-c1ccc(F)cc1F)Oc1cccc-3c1 [Example 22, (8S,11S)-10-[1-(2,4-difluorophenyl)pyrazolo[3,4-d]pyrimidin-4-yl]-13-(2-hydroxyethyl)-18-methyl-7-oxa-10,13,18,19-tetrazapentacyclo[15.6.1.1^2,6.1^8,11.0^20,24]hexacosa-1(23),2(26),3,5,17(24),19,21-heptaen-12-one] | 0.2 nM | 264 nM | 15.5 mL/min/kg
CN(C)CCN1CCCc2c3c(cccc3nn2C)-c2cccc(c2)O[C@H]2C[C@@H](C1=O)N(c1ncnc3c1cnn3-c1ccc(F)cc1F)C2 [Example 24, (8S,11S)-10-[1-(2,4-difluorophenyl)pyrazolo[3,4-d]pyrimidin-4-yl]-13-[2-(dimethylamino)ethyl]-18-methyl-7-oxa-10,13,18,19-tetrazapentacyclo[15.6.1.1^2,6.1^8,11.0^20,24]hexacosa-1(23),2(26),3,5,17(24),19,21-heptaen-12-one] | 8.2 nM | 711 nM | 14.9 mL/min/kg
Cn1nc2cccc3c2c1CCCN(CCCN1CC2(COC2)C1)C(=O)[C@@H]1C[C@@H](CN1c1ncnc2c1cnn2-c1ccc(F)cc1F)Oc1cccc-3c1 [Example 31, (8S,11S)-10-[1-(2,4-difluorophenyl)pyrazolo[3,4-d]pyrimidin-4-yl]-18-methyl-13-[3-(2-oxa-6-azaspiro[3.3]heptan-6-yl)propyl]-7-oxa-10,13,18,19-tetrazapentacyclo[15.6.1.1^2,6.1^8,11.0^20,24]hexacosa-1(23),2(26),3,5,17(24),19,21-heptaen-12-one] | 7.2 nM | 517 nM | 12.4 mL/min/kg
